Test results from US20260209277A1, “COMPOUNDS FOR RNA STABILISATION AND DELIVERY” (STICHTING VU, priority 2022, published 2026).
No end group written: not given here.

Columns and labels:
miR-21 [1] = assay: Thermal denaturation assay (CD, Tm determination) of miR-21/peptide complexes; type: binding; conditions: for melting temperature (Tm) of miR-21 co-incubated with peptide: equimolar c=2 μM, ellipticity at λ=267 nm, miR-21 alone 51° C.
From the text: A thermal denaturation assay was next used to further characterize the dsRNA binding abilities of our peptides. Typically employed in the study of nucleic acid complexes, thermal denaturation assays make use of the spectral changes resulting from complex unfolding as temperature is increased. Using circular dichroism (CD) spectroscopy as a readout, we measured the changes in ellipticity at λ=267 nm, the wavelength maxima associated with A-form dsRNA. In line with previous measurements, the mid-point of denaturation or melting temperature (Tm) associated with miR-21 is 51° C. (FIG. 2b and FIG. 2c). To assess the stability of peptide-dsRNA complexes, peptides were co-incubated with miR-21 at an equimolar concentration (c=2 μM) and measured analogously. […] Contrastingly, incubation with dimeric peptide 1^∘∘1 leads to a greater increase stabilization (Tm=56° C., FIG. 2b) which was also seen for peptide 2 (Tm=58° C., FIG. 2c). […] CD spectroscopy allows not only the measurement of thermal denaturation profiles but can also be used to compare the structural characteristics of biomolecular complexes. […]
Circular dichroism (CD) spectra were recorded with a Jasco J-1500 spectropolarimeter (Jasco) equipped with a programmable Peltier thermostat in a stoppered quartz cuvette (10 mm; Hellma). […] For each sample, 10 CD spectra were measured between 200 nm and 350 nm with continuous scan mode (1 mdeg sensitivity, 1.0 nm resolution, 1.0 nm bandwidth, 2 s integration time, 100 nm/min scan rate). […]
where θ=observed ellipticity/mdeg, c=DNA or RNA strand concentration/mol/L and l=path length/cm. Melting temperature (Tm) determination was conducted with the same instrumentation and sample preparation, where ellipticity (θ=267 nm) was measured by ramping the temperature from 15-90° C. […] Raw data were normalized as described above, and Tm-values were determined using the CDpal program before being plotted in Prism 5.0 (GraphPad).

RNA hairpins (HP 1-5) = assay: EMSA with RNA hairpins (HP 1-5); type: binding; conditions: HP 1-5 c=1 μM, peptide c=4 μM
Experimental: The binding of 2^∘∘2 to a set of five ds RNA hairpins, composed of different, complementary 19 base pair stems bridged via a fixed 6 nucleotide loop (FIG. 8a).
Electrophoretic mobility shift assays (EMSA's) were performed using a Bio-Rad MiniProtean gel system paired with a direct current (DC) power source (PowerPac™ HC, BioRad). […] For gels monitoring disulfide reduction, peptide/RNA solutions were incubated in increasing concentrations (concentration=6, 60 and 600 μM) of TCEP. After incubation, bound nucleic acid complexes were resolved using 15% and 10% non-denaturing polyacrylamide gels (acrylamide:bis-acrylamide (19:1) in 1×TAE) at 150 V or 120 V in running buffer (1×TAE) at 4° C. for 1.5 hours. For nucleic acid visualization, gels were stained using 2 μL of SYBR™ gold nucleic acid gel dye (Invitrogen) in 20 mL of 1×TAE buffer for 15 minutes at RT before being imaged using a Bio-Rad ChemiDoc.

miR-21 [2] = assay: Isothermal titration calorimetry (ITC); type: binding; conditions: for N-value (peptides per miR-21 duplex) / −TΔS (entropic penalty) / Kd: 30° C.; for Kd: 1×PBS
Experimental: To confirm RNA-binding, isothermal titration calorimetry (ITC) was used. […] For wt33 this is in line with applicants' previously reported observations.
Isothermal titration calorimetry (ITC) was conducted using a VP-ITC (MicroCal). Before measurement, annealed miR-21 and peptide samples were dissolved in 1×PBS and degassed using a ThermoVac and heated to 30° C. miR-21 (c=6-15 μM) was then transferred into the sample cell (1.8 mL) and peptides (c=86-305 μM) were transferred into the syringe (300 μL). 37 Injections per measurement were performed at 30° C. (8 μl injection volume, 3.2 s injection time, 180 s spacing, high feedback mode) with an initial delay of 60 s and a stirring speed of 310 rpm. Data were analyzed using the MicroCal LLC ITC software (Origin; OriginLab Corporation), the heat associated with each injection was calculated by integrating the area under the curve for each injection and then normalized to concentration. A ‘single set of identical binding sites’ model was used to fit the binding curves from which thermodynamic binding parameters (ΔG, ΔH, ΔS, N and Kd) were calculated.

HEK293 cells = assay: Confocal microscopy of Cy5-siRNA uptake in HEK cells; type: cell-based; conditions: HEK293, Cy5-siRNA 1 μM
Experimental: For that purpose, a 21 nt long siRNA comprised of a 19 bp stem and equipped with the far-red fluorescent label, cyanine 5 (Cy5) to monitor RNA internalization (Cy5-siRNA, FIG. 7a) was employed. Initially, HEK293 cells were incubated with Cy5-siRNA (c=1 μM, 37° C., 1 h) before being imaged by confocal fluorescence microscopy. […] To assess the tunability of this effect, Cy5-siRNA/1^∘∘1 or Cy5-siRNA/2^∘∘2 complexes were also pre-treated with the reducing agent dithiothreitol (DTT) in order to promote complex disassembly.
HEK cells were seeded at a density of 40000 cells per well on an 8 well micro-slide (Ibidi), one day before the experiment. They were cultured in DMEM (Thermofisher Scientific), supplemented with 10% Fetal Calf Serum (FCS, PAN Biotech) and glutamax (Life technologies). Before starting the experiment, the peptides and Cy5-labelled siRNA were incubated at a peptide/siRNA ratio of 2:1 (6 μM-3 μM) for 1 h. In case for dithiothreitol (DTT) supplemented experiments, DTT was added to a concentration of 20 mM. The samples were diluted to a final siRNA concentration of 1 μM in serum free DMEM. Cells were washed 1× to remove FCS, and incubated in the siRNA:peptide solution for 1 hour at 37° C. After incubation, cells were washed with the phenol-red free DMEM with HEPES, and imaged. […]

miR-21 [3] = assay: Stabilization Assay of miR-21 in fetal bovine serum; type: in vitro ADME; conditions: miR-21 9 μM, peptide 18 μM; for stabilizing effect on miR-21 in increasing FBS: 10 min at 37° C., FBS gradient
Experimental: The rapid degradation of RNA by nucleases in serum is one of the central challenges associated with the therapeutic use of RNA. Applicants were therefore interested whether peptide binding promotes RNA stability in serum. For this purpose, miR-21 was incubated with different concentrations of fetal bovine serum (FBS) at 37° C., followed by phenol/chloroform extraction and PAGE analysis (FIG. 14). […] Both is in line with their reduced affinity for miR-21 (FIGS. 12a and 12b). To investigate the time-dependence of RNA stability, a prolonged incubation of RNA in serum (27.5% FBS) was performed, and the remaining RNA visualized by native PAGE (FIG. 14d). Remarkably, even after 6 hours, miR-21 was still detectable in the presence of peptide 2^∘∘2, while in the absence of the peptide, RNA was fully degraded within 15 minutes in line with afore made observations. These findings highlight the potential of peptide 2^∘∘2 to strongly enhance the stability of dsRNA in serum.
RNA stabilization was investigated by incubation of peptide/RNA complexes with fetal bovine serum (FBS) (Thermo Fischer Scientific). Peptide/RNA complexes were formed as described above after which defined amounts of FBS were added (concentration(RNA)=9 μM, concentration(peptide)=18 μM, total volume 10 μL). For gradient stability assay FBS containing RNA solutions were incubated at 37° C. for 10 min and for time course analysis at room temperature with 27.5% FBS. After incubation, 10 μL of NaOAc (3 M), 1 μL Glycogen (Thermo Fischer Scientific), 1 μL Ribolock (Thermo Fischer Scientific) and ddH2O was added on ice to a total volume of 200 μL.
RNA was extracted twice with freshly prepared solution of phenol/chloroform (5:1, 2 mL). After ethanol precipitation (1 mL) of the aqueous phase RNA pallets were redissolved in 8 μL ddH2O and added 2 μL 6×BB and then loaded into a native PAGE gel and run with previously described conditions.

miR-21 [4] = assay: Electrophoretic mobility shift assay (EMSA) with miR-21; type: binding; conditions: c(RNA)=3 μM; for dsRNA binding in EMSA (band shift): c(peptide)=6 μM, 15% native PAGE
From the text: With the desired peptides in hand, we first assessed their dsRNA-binding potential using an electrophoretic mobility shift assay (EMSA). Making use of non-denaturing conditions, EMSA allows to resolve biomolecular complexes by size and charge character.
WT33 was employed as comparative positive control for peptide binding while the double-stranded microRNA, miR-21, was chosen as a sample dsRNA target for this assay. Comprised of an 18 base pair (bp) duplex, miR-21 can accommodate the binding of two wt33 monomers, similar to siRNA duplexes. Under established EMSA conditions, miR-21 resolves as two bands, a lower band corresponding to both unbound single strands and a higher, more distinct band (ca. 20 bp) corresponding to the miR-21 duplex (FIG. 2a). […] With reference to wt33, the most prominent elevated band (ca. 30 bp) likely corresponds to a 1:1 peptide/dsRNA complex while the upper band may represent a higher order structure. The reduction in ds and ssRNA band intensity is likely a result of these binding events.
Additionally, EMSA experiments were performed where dsRNA was incubated with either peptide 1^∘∘1 or 2^∘∘2 in the presence or absence TCEP. […] Having verified the tuneable, dsRNA-binding abilities of our peptide dimers, their use a cellular siRNA delivery tools was confirmed.
Electrophoretic mobility shift assays (EMSA's) were performed using a Bio-Rad MiniProtean gel system paired with a direct current (DC) power source (PowerPac™ HC, BioRad). Typically, 6 μL solutions containing RNA (concentration=3 μM) and peptide (concentration=6 μM) were incubated for 1 h at RT in a binding buffer (1×TAE and 10% glycerol). For gels monitoring disulfide reduction, peptide/RNA solutions were incubated in increasing concentrations (concentration=6, 60 and 600 μM) of TCEP. After incubation, bound nucleic acid complexes were resolved using 15% and 10% non-denaturing polyacrylamide gels (acrylamide:bis-acrylamide (19:1) in 1×TAE) at 150 V or 120 V in running buffer (1×TAE) at 4° C. for 1.5 hours. […]

| Substance | melting temperature (Tm) of miR-21 co-incubated with peptide (miR-21 [1]) | ΔTm, lowering of melting temperature of dsRNA complex by TCEP (miR-21 [1]; excess reducing agent, 1 mM TCEP vs no TCEP) | binding to RNA hairpins in EMSA (RNA hairpins (HP 1-5)) | N-value (peptides per miR-21 duplex) (miR-21 [2]) | −TΔS (entropic penalty) (miR-21 [2]) | Kd (miR-21 [2]) | fold higher affinity than wt33 (miR-21 [2]; Kd ratio versus wt33) | cellular uptake of Cy5-siRNA co-incubated with peptide (fluorescence) (HEK293 cells; 37° C., 1 h, versus Cy5-siRNA alone) | cellular uptake of Cy5-siRNA/peptide complex pre-treated with DTT (HEK293 cells; DTT pre-treatment (20 mM)) | time miR-21 still detectable in serum in presence of peptide (miR-21 [3]; 27.5% FBS, room temperature, without peptide fully degraded within 15 minutes) | stabilizing effect on miR-21 in increasing FBS (miR-21 [3]) | EMSA of dsRNA/peptide complex with increasing TCEP (miR-21 [4]; c(ligand)=6 μM, c(TCEP)=6, 60 and 600 μM) | dsRNA binding in EMSA (band shift) (miR-21 [4]) |
| --- | --- | --- | --- | --- | --- | --- | --- | --- | --- | --- | --- | --- | --- |
| N-terminal disulfide (S-S) homodimer of stapled XβNQKKQAQRKRHKS5NRKS5R (SEQ ID NO 23) [peptide 2^∘∘2] | 60 °C | 4 °C | showed binding to each hairpin | 1.89 | 5.7 kcal/mol | 31.7 nM | 10 fold | increase in fluorescence intensity | decrease cellular fluorescence intensities | ≥ 6 h | residual RNA levels at 20% FBS to be comparable to those at 1% FBS in the absence of peptide | partial disassembly or unlocking of the dsRNA-peptide complex | comparable band is also observed |
| Ac-KKQAQRKRHKLNRKERGHKSPSEQRRSELWHAR (SEQ ID NO 19); 33-amino acid TAV2b RNA-binding peptide without dimerization motif, comparative positive control [wt33, reference compound] | 58 °C |  |  | 1.91 | 9.3 kcal/mol | 328 nM |  |  |  |  | considerably smaller |  | smeared elevated band (ca. 50 bp), corresponding to a 2:1, peptide/dsRNA complex |
